Results taken from patent US6399782B1, “Benzimidazole inhibitors of fructose 1,6-bisphosphatase” (Metabasis Therapeutics, Inc., priority 1997, dated 2002).

Tests used:
Porcine heart AMPDA = test: Adenosine monophosphate deaminase selectivity assay; format: biochemical; conditions: AMP deaminase vs hlFBPase
Experimental: (§1) To determine the selectivity of compounds towards FBPase, effects of FBPase inhibitors on 5 key AMP binding enzymes were measured using the assays described below:
Adenosine Monophosphate Deaminase: Porcine heart AMPDA was purified essentially as described by Smiley et al. (Smiley, K. L., Jr, Berry, A. J., and Suelter, C. H. (1967) J. Biol. Chem. 242, 2502-2506) through the phosphocellulose step. Inhibition of AMPDA activity was determined at 37° C. in a 0.1 mL assay mixture containing inhibitor, ˜0.005 U AMPDA, 0.1% bovine serum albumin, 10 mM ATP, 250 mM KCl, and 50 mM MOPS at pH 6.5. The concentration of the substrate AMP was varied from 0.125-10.0 mM. Catalysis was initiated by the addition of enzyme to the otherwise complete reaction mixture, and terminated after 5 minutes by injection into an HPLC system. Activities were determined from the amount of IMP formed during 5 minutes.

[1] = target: T1, Phosphofructokinase (rabbit liver) (Oryctolagus cuniculus, UniProt Z9KA34MY27); test: Phosphofructokinase selectivity assay; format: biochemical; conditions: result in words
T1 construct: Phosphofructokinase: Enzyme (rabbit liver) was purchased from Sigma
T1 sequence (Z9KA34MY27 1-780): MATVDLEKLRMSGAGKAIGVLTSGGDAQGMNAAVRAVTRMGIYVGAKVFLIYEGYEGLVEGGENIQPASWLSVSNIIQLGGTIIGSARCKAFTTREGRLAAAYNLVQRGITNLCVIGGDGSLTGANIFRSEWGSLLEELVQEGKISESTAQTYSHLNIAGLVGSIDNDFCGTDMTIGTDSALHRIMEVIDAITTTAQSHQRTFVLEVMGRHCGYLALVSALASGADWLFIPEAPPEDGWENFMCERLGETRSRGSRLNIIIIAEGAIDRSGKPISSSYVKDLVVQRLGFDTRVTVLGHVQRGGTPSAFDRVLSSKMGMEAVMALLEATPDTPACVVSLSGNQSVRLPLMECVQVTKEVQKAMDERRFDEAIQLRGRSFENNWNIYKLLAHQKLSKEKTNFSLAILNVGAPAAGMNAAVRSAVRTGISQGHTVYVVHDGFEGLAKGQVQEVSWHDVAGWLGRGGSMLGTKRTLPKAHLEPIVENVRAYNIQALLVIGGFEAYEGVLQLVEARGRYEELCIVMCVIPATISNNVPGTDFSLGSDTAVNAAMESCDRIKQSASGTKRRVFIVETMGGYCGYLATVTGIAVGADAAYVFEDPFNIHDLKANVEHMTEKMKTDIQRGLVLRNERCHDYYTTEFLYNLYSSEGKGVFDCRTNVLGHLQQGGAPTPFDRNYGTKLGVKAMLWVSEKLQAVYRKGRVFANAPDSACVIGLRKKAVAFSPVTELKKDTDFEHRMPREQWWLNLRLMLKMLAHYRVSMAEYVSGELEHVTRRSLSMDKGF
Experimental: as §1
Phosphofructokinase: Enzyme (rabbit liver) was purchased from Sigma. Activity was measured at 30° C. in reactions in which the formation of fructose 1,6-bisphosphate was coupled to the oxidation of NADH via the action of aldolase, triosephosphate isomerase, and α-glycerophosphate dehydrogenase. Reaction mixtures (200 μL) were made up in 96-well microtitre plates and were read at 340 nm in a Molecular Devices Microplate Reader. The mixtures consisted of 200 mM Tris-HCl pH 7.0, 2 mM DTT, 2 mM MgCl2, 0.2 mM NADH, 0.2 mM ATP, 0.5 mM Fructose 6-phosphate, 1 unit aldolase/ml, 3 units/ml triosephosphate isomerase, and 4 units/mL α-glycerophosphate dehydrogenase. Test compound concentrations ranged from 1 to 500 μM. Reactions were started by the addition of 0.0025 units of phosphofructokinase and were monitored for 15 minutes.

[2] = target: T2, Glycogen Phosphorylase (rabbit muscle) (Oryctolagus cuniculus, UniProt P00489); test: Glycogen phosphorylase selectivity assay; format: biochemical; conditions: for EC50: Table 3 Selectivity, read-out: Glycogen Phosphorylase (act.); for effect on glycogen phosphorylase: result in words
T2 construct: Enzyme (rabbit muscle) was purchased from Sigma; purchased Sigma; host or cells: rabbit muscle
T2 sequence (P00489 2-843 limits assumed): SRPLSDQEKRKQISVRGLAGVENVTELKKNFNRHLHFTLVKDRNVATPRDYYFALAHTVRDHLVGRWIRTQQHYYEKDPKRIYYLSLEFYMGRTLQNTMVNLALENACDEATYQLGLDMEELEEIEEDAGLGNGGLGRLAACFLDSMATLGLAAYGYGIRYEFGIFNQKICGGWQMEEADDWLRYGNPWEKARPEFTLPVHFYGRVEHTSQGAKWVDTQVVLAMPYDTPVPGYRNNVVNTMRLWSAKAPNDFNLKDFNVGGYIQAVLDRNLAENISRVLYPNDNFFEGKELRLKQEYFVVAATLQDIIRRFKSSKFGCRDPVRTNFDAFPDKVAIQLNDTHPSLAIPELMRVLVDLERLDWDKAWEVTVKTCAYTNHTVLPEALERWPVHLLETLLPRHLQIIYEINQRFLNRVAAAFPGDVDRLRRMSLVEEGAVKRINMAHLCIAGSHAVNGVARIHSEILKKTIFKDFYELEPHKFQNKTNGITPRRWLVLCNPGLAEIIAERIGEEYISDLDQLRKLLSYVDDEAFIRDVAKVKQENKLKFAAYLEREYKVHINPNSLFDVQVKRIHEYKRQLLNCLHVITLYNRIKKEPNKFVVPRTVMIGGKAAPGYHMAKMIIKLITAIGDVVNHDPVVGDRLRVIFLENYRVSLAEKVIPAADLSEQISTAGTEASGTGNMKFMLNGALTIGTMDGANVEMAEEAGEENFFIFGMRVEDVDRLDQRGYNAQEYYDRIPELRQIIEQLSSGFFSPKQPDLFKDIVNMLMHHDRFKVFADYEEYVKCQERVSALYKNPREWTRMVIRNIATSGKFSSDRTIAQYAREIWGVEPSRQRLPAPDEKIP
Experimental: as §1
Glycogen Phosphorylase: Enzyme (rabbit muscle) was purchased from Sigma. Activity was measured at 37° C. in reactions in which the formation of glucose 1-phosphate was coupled to the reduction of NADP via phosphoglucomutase and glucose 6-phosphate dehydrogenase. Assays were performed on 96-well microtitre plates and were read at 340 nm on a Molecular Devices Microplate Reader. Reaction mixtures consisted of 20 mM imidazole, pH 7.4, 20 mM MgCl2, 150 mM potassium acetate, 5 mM potassium phosphate, 1 mM DTT, 1 mg/ml BSA, 0.1 mM NADP, 1 unit/mL phosphoglucomutase, 1 unit/mL glucose 6-phosphate dehydrogenase, 0.5% glycogen. Test compound concentrations ranged from 1 to 500 μM. Reactions were started by the addition of 17 μg enzyme and were monitored for 20 minutes.

rat hepatocytes = test: Inhibition of gluconeogenesis in rat hepatocytes; format: cell-based; conditions: for IC50: Hepatocyte, glucose production from lactate/pyruvate, isolated rat hepatocytes, 1 hour; for inhibition of glucose production in rat hepatocytes (FIG. 4): result in words
Experimental: Hepatocytes were prepared from overnight fasted Sprague-Dawley rats (250-300 g) according to the procedure of Berry and Friend (Berry, M. N., Friend, D. S., 1969, J. Cell. Biol. 43, 506-520) as modified by Groen (Groen, A. K., Sips, H. J., Vervoorn, R. C., Tager, J. M., 1982, Eur. J. Biochem. 122, 87-93). Hepatocytes (75 mg wet weight/mL) were incubated in 1 ml Krebs-bicarbonate buffer containing 10 mM Lactate, 1 mM pyruvate, 1 mg/mL BSA, and test compound concentrations from 1 to 500 μM. Incubations were carried out in a 95% oxygen, 5% carbon dioxide atmosphere in closed, 50-mL Falcon tubes submerged in a rapidly shaking water bath (37° C.). After 1 hour, an aliquot (0.25 mL) was removed, transferred to an Eppendorf tube and centrifuged. 50 μL of supernatant was then assayed for glucose content using a Sigma Glucose Oxidase kit as per the manufacturer's instructions.

[3] = tested on: fasted Sprague Dawley rats; test: Blood glucose lowering in fasted rats; format: in vivo, rat; conditions: 20 mg/kg intraperitoneally, 18 hours fasted Sprague Dawley rats, one hour post injection
Experimental: Sprague Dawley rats (250-300 g) were fasted for 18 hours and then dosed intraperitoneally with 20 mg/kg of compounds 12.53, 12.61, or 12.64. The vehicle used for drug administration was 50 mM sodium bicarbonate. Blood samples were obtained from the tail vein of conscious animals just prior to injection and one hour post injection. Blood glucose was measured using a HemoCue Inc. glucose analyzer according to the instructions of the manufacturer.

SMILES | half-maximal inhibition of AMP deaminase relative to IC50 for FBPase (Porcine heart AMPDA) [fold] | effect on phosphofructokinase [1] | EC50 [2] [µM] | effect on glycogen phosphorylase [2] | IC50 (rat hepatocytes) [µM] | inhibition of glucose production in rat hepatocytes (FIG. 4) (rat hepatocytes) | blood glucose lowering [3] [%] | melting point [°C] | activation of glycogen phosphorylase ([2]; concentrations of drug ranging from 5 to […])
Nc1c(F)ccc2c1nc(-c1ccc(P(=O)(O)O)o1)n2CC1CC1 [Compound 12.61, 4-Amino-5-fluoro-1-cyclopropylmethyl-2-(2-phosphono-5-furanyl)benzimidazole] | ~600 | essentially without effect | > 100 | essentially without effect | 3.3 | inhibit glucose production in vitro in rat hepatocytes | 48±15 | 258 to 260 | –
CCc1cc(F)c(N)c2nc(-c3ccc(P(=O)(O)O)o3)n(CC(C)C)c12 [Compound 12.64] | – | – | > 500 | – | 2.5 | – | 64.6±24 | – | no activation of the enzyme was observed
CCn1c(-c2ccc(P(=O)(O)O)o2)nc2c(N)cccc21 [Compound 12.1, 4-Amino-1-ethyl-2-[2-(5-phosphono)furanyl]benzimidazole] | 42 | essentially inactive | > 200 | essentially inactive | 110 | inhibit glucose production in vitro in rat hepatocytes | – | > 250 | –
